Results published in PubChem BioAssay (NCI).
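Results reflect a 48-hour exposure of cells in 96-well plates to compound at five concentrations. Here, GI50 denotes the concentration required for 50% inhibition of growth. At the TGI there is no net growth.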

Legend:
Assay in all cases: growth of human tumour cells (NCI), 48 h
SK-OV-3 ovarian = tested on: SK-OV-3 ovarian
SW-620 colon = tested on: SW-620 colon
OVCAR-8 ovarian = tested on: OVCAR-8 ovarian
HOP-62 NSCLC = tested on: HOP-62 NSCLC
M14 melanoma = tested on: M14 melanoma
SK-MEL-5 melanoma = tested on: SK-MEL-5 melanoma
ACHN renal = tested on: ACHN renal
UACC-257 melanoma = tested on: UACC-257 melanoma
OVCAR-3 ovarian = tested on: OVCAR-3 ovarian
HOP-92 NSCLC = tested on: HOP-92 NSCLC

Row | Compound | TGI (SK-OV-3 ovarian) | TGI (SW-620 colon) | TGI (OVCAR-8 ovarian) | TGI (HOP-62 NSCLC) | TGI (M14 melanoma) | TGI (SK-MEL-5 melanoma) | TGI (ACHN renal) | TGI (UACC-257 melanoma) | TGI (OVCAR-3 ovarian) | TGI (HOP-92 NSCLC) | GI50 (SK-OV-3 ovarian) | GI50 (SW-620 colon) | GI50 (HOP-62 NSCLC) | GI50 (M14 melanoma) | GI50 (SK-MEL-5 melanoma) | GI50 (ACHN renal) | GI50 (UACC-257 melanoma) | GI50 (OVCAR-8 ovarian) | GI50 (HOP-92 NSCLC) | GI50 (OVCAR-3 ovarian)
1 | C[P+]1(c2ccccc2)CCCCC1 | > 100 µM | > 100 µM | > 100 µM | > 100 µM | > 100 µM | > 100 µM | > 100 µM | > 100 µM | > 100 µM |  |  |  |  |  |  |  |  |  |  | 
2 | N#C/C(=C1\OC(=N)C(c2ccc(Cl)cc2Cl)C1=O)c1ccc(Cl)cc1Cl (stereo unspecified) | > 100 µM | > 100 µM | > 100 µM |  | > 100 µM | > 100 µM | > 100 µM | > 100 µM | > 100 µM | > 100 µM |  |  |  |  |  |  |  |  |  | 
3 | CC(N)CC(=O)O (stereo unspecified) | > 5000 µM | > 5000 µM |  |  | > 5000 µM | > 5000 µM | > 5000 µM | > 5000 µM | > 5000 µM | > 5000 µM |  |  |  |  |  |  |  |  |  | 
4 | C=CC[N+]1(CC)CCN=C1CCCCCCCCCCCCCCCCC (stereo unspecified) | 2.33 µM | 1.71 µM |  | 1.75 µM | 1.28 µM | 1.3 µM | 2.52 µM | 2.16 µM |  |  | 1.12 µM | 0.499 µM | 0.53 µM | 0.35 µM | 0.355 µM | 1.19 µM | 0.731 µM |  |  | 
5 | O=C1C(Sc2ccc3ccccc3c2)=C(Sc2ccc3ccccc3c2)C(=O)c2ccccc21 | 68.2 µM | 16.5 µM | 22.2 µM | 27.8 µM | 23.7 µM | 12.4 µM | 17.3 µM | 16.3 µM |  | 22.3 µM |  |  |  |  |  |  |  |  |  | 
6 | N#CNC1=NC(N)C(c2nc3ccccc3[nH]2)=C(CCCC(=O)Nc2cccc([N+](=O)[O-])c2)N1 (stereo unspecified) | > 100 µM | > 100 µM | > 100 µM | > 100 µM | > 100 µM | > 100 µM | > 100 µM | > 100 µM | > 100 µM |  |  |  |  |  |  |  |  |  |  | 
7 | CCOC(=O)C(CCCNC(=O)OC(C)(C)C)N(Cc1ccc(OC)cc1OC)C(=O)CC(=O)CP(=O)(OCC)OCC (stereo unspecified) | > 100 µM |  | > 100 µM | > 100 µM | > 100 µM | > 100 µM | > 100 µM | > 100 µM | > 100 µM | > 100 µM |  |  |  |  |  |  |  |  |  | 
8 | COC(=O)c1cc([N+](=O)[O-])cc([N+](=O)[O-])c1Cl | 31.3 µM | 3.52 µM | 4.38 µM | 8.09 µM |  | 10.9 µM | 3.21 µM | 2.98 µM | 3.2 µM | 3.04 µM | 17.5 µM | 1.87 µM | 2.65 µM |  | 3.03 µM | 1.76 µM | 1.58 µM | 2.01 µM | 1.64 µM | 1.78 µM
9 | COc1cc(/C=C/C(=O)O[C@H]2[C@H](O[C@@H]3O[C@@H](C)[C@H](O)[C@@H](O)[C@H]3O)[C@@H](O)[C@H](OCCc3ccc(O)c(O)c3)O[C@@H]2COC2OCC(O)(CO)C2O)ccc1O (stereo partly specified) | > 100 µM | 46 µM |  | > 100 µM | > 100 µM | > 100 µM | > 100 µM | > 100 µM | > 100 µM | > 100 µM | > 100 µM | 20.1 µM | > 100 µM | > 100 µM | > 100 µM | > 100 µM | > 100 µM |  | 0.402 µM | > 100 µM
10 | C/C(=N\NC(=O)C(N)=O)c1c(O)cc(C)oc1=O | > 100 µM | > 100 µM | > 100 µM | > 100 µM | > 100 µM | > 100 µM | > 100 µM | > 100 µM |  | > 100 µM |  |  |  |  |  |  |  |  |  | 
11 | C=CCN(CC=C)C(=O)[C@H](CC)[C@@H]1CC[C@@H](C)[C@@H]([C@H](C)[C@@H](O)[C@@H](C)C(=O)[C@H](CC)C2O[C@]3(C=C[C@@H](O)[C@]4(CC[C@@](C)([C@H]5CC[C@](O)(CC)[C@H](C)O5)O4)O3)[C@H](C)C[C@@H]2C)O1 (stereo partly specified) | > 100 µM | 10.6 µM | 76.4 µM | 12.2 µM |  | 3.15 µM | 11 µM | 8.25 µM | 4.57 µM | 4.31 µM | 3.51 µM | 2.97 µM | 3.22 µM |  | 1.72 µM | 2.9 µM | 2.35 µM | 3.48 µM | 1.39 µM | 1.92 µM
12 | C=CC(=O)N[C@@H](/C=C/C(=O)OCC)Cc1ccc(-c2cc(Cl)cc(Cl)c2)cc1 | 63.1 µM | 83.2 µM | > 100 µM |  | 80.6 µM | 17.5 µM | > 100 µM |  | 53.1 µM |  | 19.4 µM | 17 µM |  | 17 µM | 4.46 µM | 16.1 µM |  | 8.89 µM |  | 7.27 µM
13 | Cn1c(C(=O)c2cccc3ccccc23)nc2ccccc21 | > 100 µM | > 100 µM | > 100 µM | > 100 µM |  | > 100 µM | > 100 µM | > 100 µM | > 100 µM | > 100 µM | > 100 µM | > 100 µM | > 100 µM |  | > 100 µM | > 100 µM | > 100 µM | > 100 µM | 35.9 µM | > 100 µM
14 | CC(C)(C)c1cc(C(=O)O)c2c(c1)C(=O)OC2(c1ccccc1)c1ccccc1C(=O)O (stereo unspecified) |  | > 100 µM | > 100 µM | > 100 µM | > 100 µM | > 100 µM | > 100 µM | > 100 µM | > 100 µM | > 100 µM |  |  |  |  | > 100 µM |  |  |  |  | 
15 | Clc1ccc([I+]c2ccc(Cl)cc2Cl)c(Cl)c1 | 12 µM | 3.75 µM | 4.8 µM | 4.91 µM | 6.07 µM | 20.3 µM | 3.77 µM | 5.8 µM | 3.09 µM |  | 4.17 µM | 1.25 µM | 2.27 µM | 2.58 µM | 6.04 µM | 1.89 µM | 2.38 µM | 2.1 µM |  | 1.65 µM
16 | CC1CCC2(C)C(CC=C(C=O)C2(O)C=O)C12CO2 (stereo unspecified) | 10.2 µM | 8.77 µM | 6.69 µM | 40.3 µM | 6.29 µM |  | 3.93 µM | 3.79 µM | 2.6 µM | 5.29 µM |  |  |  |  |  |  |  |  |  | 
17 | COc1ccc(C2CC(c3ccc(N(C)C)cc3)=NN2c2ccc(S(N)(=O)=O)cc2)cc1 (stereo unspecified) | > 100 µM | > 100 µM | > 100 µM | > 100 µM | > 100 µM | 3.37 µM | > 100 µM | > 100 µM | 8.18 µM |  | 4.38 µM | 4.06 µM | 3.96 µM | 4.42 µM | 1.73 µM | 3.37 µM | 4.48 µM | 3.98 µM |  | 3.02 µM
18 | O=C(c1c(O)cc(O)cc1O)C1Cc2ccccc21 (stereo unspecified) | > 100 µM | > 100 µM | > 100 µM | > 100 µM | > 100 µM | > 100 µM | > 100 µM | > 100 µM |  | > 100 µM |  |  |  |  |  |  |  |  |  | 
